Laboratory results reported in article PMC4428793, “MK571 inhibits phase-2 conjugation of flavonols by Caco-2/TC7 cells, but does not specifically inhibit their apical efflux^” (Biochemical Pharmacology, 2015).

Tests used:
Caco-2/TC7 cell lysate = test: Flavonol conjugate production by Caco-2/TC7 cell free lysate, effect of MK571; type: biochemical, human; details: aglycone 40 μM; for Change in rate (%): MK571 50 μM vs control; for Rate +MK571 (conjugate production): MK571 50 μM; for Rate +MK571 (conjugate production) / Rate control (conjugate production): slope (standard error of the slope); for Rate control (conjugate production): no MK571
Experimental: Cells were grown until 21 days post confluent and washed and aspirated as described previously. The cells were then scraped into tubes and these tubes kept on ice at all times throughout the preparation procedure. Homogenisation buffer comprised of sodium phosphate buffer (50 mM adjusted to pH 6.5; 20 mL), two mini protease inhibitor cocktail tablets containing EDTA and perfabloc, dithiothreitol (30.8 mg), alamethacin (20 μL of a 22 μg/mL) solution from T. viride; and MgCl2 (3.5 mg). Cell-free homogenates were prepared by mixing cells with homogenisation buffer (50:50, vol/vol) and vortexing with glass beads in an eppendorf tube three times for 1 min over a 10 min period. To 900 μL of cell free lysate was added 10 μL uridine 5′-diphosphoglucuronic acid (4 mM final concentration) with uridine 5′-diphospho-N-acetyl-glucosamine (dissolved in homogenisation buffer, 2 mM final concentration); 10 μL MK571 (50 mmol/L stock diluted 1:9 with homogenisation buffer) or 10 μL dimethyl sulfoxide blank (diluted 1:9 with homogenisation buffer). The tubes were allowed to warm and once they reached 37 °C, the flavonols were added at the relevant concentration (kaempferol, quercetin or galangin; 10 mmol/L stock in dimethyl sulfoxide diluted 1:1 with homogenisation buffer, plus homogenisation buffer added to create a final volume of 1000 μL) and the tube vortexed briefly. The experiment was stopped by addition of a mixture of 50 μL trifluoracetic acid and 50 μL acetonitrile. Samples were then centrifuged for 10 min at 14,000 × g. The supernatant was removed and analysed via HPLC.

Caco-2/TC7 cells = test: Flavonol metabolism and transport experiments on Caco-2/TC7 transwell monolayers, effect of MK571; type: cell-based, human; details: apical to basolateral ratio of efflux of the conjugate, 60 min, 12-well transwells
Experimental: Cells were grown at 37 °C in a humidified incubator with 5% CO2 in Dulbecco Modified Eagle's Medium (DMEM) containing 1% non-essential amino acids, 1% L-glutamine, 100 IU/mL penicillin and 100 μg/mL streptomycin, 1 g/L glucose, and supplemented with 20% (v/v) heat inactivated fetal calf serum. Cells were passaged at 80% confluency, and seeded at 2–4 × 10^4 cells per cm^2 on 10 cm dishes (growing area 75 cm^2) or 12-well transwells (growing area of 1.1 cm^2). […] Toxicity of MK571 on Caco-2/TC7 cell monolayers was determined through comparison of pre- and post-loading TEER values of wells incubated with MK571.
Flavonol stocks (quercetin, kaempferol, galangin; 10 mM) were prepared in dimethylsulfoxide (DMSO) and stored at −20 °C. MK571 was dissolved in dimethyl sulfoxide (10 mM final concentration) and stored at −20 °C. Prior to the metabolism or transport experiments, cells were aspirated of media and washed three times with phosphate buffered saline (PBS). To foetal calf serum and phenol red-free DMEM was added ascorbic acid at a final concentration of 100 μM as well as MK571 at the desired concentration. For metabolism experiments, 10 mL of this media was added to the cells in 10 cm dishes. For transport experiments using transwells, 0.6 mL of this media was added to the apical compartment of the transwell and 1 mL was added to the basolateral compartment. Control wells received an equivalent dose of dimethyl sulfoxide as the treatment wells. Cells were incubated at 37 °C for 30 min, after which flavonols dissolved in dimethyl sulfoxide (kaempferol, galangin or quercetin) were added to the media of treatment wells at a final concentration of 40 or 100 μM, while control wells were treated with the dimethyl sulfoxide vehicle alone. Concentrations of quercetin were increased to 100 μM because instability of quercetin in media necessitated higher initial loading to maintain adequate cellular and media concentrations for uptake and metabolism of the flavonol. Control and treatment cells were incubated at 37 °C for the periods indicated in the results.
Following the required incubation period, media and cell fractions were harvested and analysed to identify and quantify flavonol metabolites using HPLC. Media was removed from the apical (0.5 mL) and basolateral (0.5 mL) compartments of transwells and added to 25 μL trifluoroacetic acid and 25 μL HPLC grade acetonitrile. Media from 10 cm dishes (1 mL) was removed and added to 50 μL trifluoroacetic acid and 25 μL HPLC grade acetonitrile. Cells were washed three times with cold (room temperature) phosphate buffered saline solution and scraped free of the dish surface. For transwells, 100 μL MilliQ water was added to the cells and the resulting cell suspension pipetted into 10 μL trifluoroacetic acid and 10 μL HPLC grade acetonitrile. For 10 cm dishes, the resulting cell suspension was pipetted into 25 μL trifluoroacetic acid and 25 μL HPLC grade acetonitrile. Samples were either analysed immediately or otherwise stored at −20 °C prior to HPLC analysis. Flavonols were stable during frozen storage and thawing (no significant losses up to 26 weeks).
Media samples were thawed where necessary and then mixed using a vortex mixer, centrifuged for 10 min at 14,000 × g using a micro centrifuge, and the supernatant removed and placed in an HPLC vial for analysis. Cell samples were vortex-mixed and then ultra-sonicated (sonic water bath) for 10 min, vortex mixed again and then centrifuged for 10 min at 14,000 × g using a micro-centrifuge, before removal of supernatant for HPLC analysis. Identification and quantification of individual flavonol metabolites was carried out using liquid chromatography–mass spectrometry and nuclear magnetic resonance analyses, as described previously. […]

Compound	Rate +MK571 (conjugate production) (Caco-2/TC7 cell lysate)	Rate control (conjugate production) (Caco-2/TC7 cell lysate)	Ap:Bl ratio (50 μM MK571) (Caco-2/TC7 cells)	Ap:Bl ratio (No MK571) (Caco-2/TC7 cells)	Ap:Bl ratio (100 μM MK571) (Caco-2/TC7 cells)	Change in rate (%) (Caco-2/TC7 cell lysate)
O=C(O)[C@H]1O[C@@H](Oc2cc(O)c3c(=O)c(O)c(-c4ccc(O)c(O)c4)oc3c2)[C@H](O)[C@@H](O)[C@@H]1O [Q-7-GlcA]	1.29 (±0.26) pmol/h	1.89 (±0.16) pmol/h	–	–	–	−31.8%
O=C(O)[C@H]1O[C@@H](Oc2cc(O)c3c(=O)c(O)c(-c4ccc(O)cc4)oc3c2)[C@H](O)[C@@H](O)[C@@H]1O [K-7-GlcA, kaempferol-7-glucuronide]	0.69 (±0.02) pmol/h	1.12 (±0.09) pmol/h	0.35 (±0.063)	0.28 (±0.044)	0.44 (±0.021)	−38.2%
O=C(O)C1OC(Oc2cc(O)cc3oc(-c4ccccc4)c(O)c(=O)c23)C(O)C(O)C1O (centres unmarked) [G-5-GlcA]	–	–	0.30 (±0.024)	0.19 (±0.020)	–	–
O=C(O)[C@H]1O[C@@H](Oc2cc(-c3oc4cc(O)cc(O)c4c(=O)c3O)ccc2O)[C@H](O)[C@@H](O)[C@@H]1O [Q-3′-GlcA]	2.62 (±0.24) pmol/h	2.09 (±0.12) pmol/h	100% apical	100% apical	–	+25.6%
kaempferol sulphate [K-S]	–	–	3.92 (±0.646)	3.02 (±0.230)	0.14 (±0.006)	–

Further lines, with some results ahead:

Rate +MK571 (conjugate production) (Caco-2/TC7 cell lysate)	Rate control (conjugate production) (Caco-2/TC7 cell lysate)	Ap:Bl ratio (50 μM MK571) (Caco-2/TC7 cells)	Ap:Bl ratio (No MK571) (Caco-2/TC7 cells)	Ap:Bl ratio (100 μM MK571) (Caco-2/TC7 cells)	Compound	Change in rate (%) (Caco-2/TC7 cell lysate)
25.3 (±2.30) pmol/h	68.8 (±6.12) pmol/h	0.35 (±0.091)	0.24 (±0.033)	–	O=C(O)[C@H]1O[C@@H](Oc2c(-c3ccccc3)oc3cc(O)cc(O)c3c2=O)[C@H](O)[C@@H](O)[C@@H]1O [G-3-GlcA, galangin-3-glucuronide]	−63.2%
–	–	9.10 (±0.783)	13.6 (±1.440)	–	galangin sulphate [G-S]	–
–	–	0.33 (±0.080)	0.26 (±0.066)	0.43 (±0.018)	O=C(O)[C@H]1O[C@@H](Oc2ccc(-c3oc4cc(O)cc(O)c4c(=O)c3O)cc2)[C@H](O)[C@@H](O)[C@@H]1O [K-4′-GlcA, kaempferol-4′-glucuronide]	–
19.8 (±1.63) pmol/h	36.5 (±1.49) pmol/h	0.51 (±0.036)	0.54 (±0.058)	–	O=C(O)[C@H]1O[C@@H](Oc2cc(O)c3c(=O)c(O)c(-c4ccccc4)oc3c2)[C@H](O)[C@@H](O)[C@@H]1O [G-7-GlcA, galangin-7-glucuronide]	−45.7%
0.34 (±0.02) pmol/h	0.54 (±0.04) pmol/h	0.42 (±0.121)	0.59 (±0.174)	0.43 (±0.028)	kaempferol-sulfo-glucuronide [K-S-GlcA]	–
0.28 (±0.03) pmol/h	0.25 (±0.01) pmol/h	0.25 (±0.035)	0.23 (±0.034)	–	O=C(O)[C@H]1O[C@@H](Oc2ccc(-c3oc4cc(O)cc(O)c4c(=O)c3O)cc2O)[C@H](O)[C@@H](O)[C@@H]1O [Q-4′-GlcA]	+12.1%
1.40 (±0.08) pmol/h	1.73 (±0.16) pmol/h	–	–	–	O=C(O)[C@H]1O[C@@H](Oc2c(-c3ccc(O)cc3)oc3cc(O)cc(O)c3c2=O)[C@H](O)[C@@H](O)[C@@H]1O [K-3-GlcA, kaempferol-3-glucuronide]	−19.3%
0.83 (±0.14) pmol/h	1.05 (±0.09) pmol/h	–	–	–	O=C(O)[C@H]1O[C@@H](Oc2c(-c3ccc(O)c(O)c3)oc3cc(O)cc(O)c3c2=O)[C@H](O)[C@@H](O)[C@@H]1O [Q-3-GlcA]	−21.8%
